Measurements as given in patent publication US10392422B2, “Macrocyclic broad spectrum antibiotics” (priority 2014, dated 2019).
Converted amounts (≈) assume the structure as drawn. Like-named read-outs stand apart in the source and are kept apart here.

Tests used:
MRSA strain COL = experiment: Neutropenic thigh infection model, intravenous infusion; format: in vivo, CD-1 mice; conditions: Compound 115 (Css 2 or 6.4 ug/mL) co-dosed with imipenem (Css 0.3 μg/mL), infused 23 hours; 24 hours post infection; compared with either single agent; FIG. 3
Procedure: Jugular vein cannulated CD-1 mice were subjected to induced neutropenia (<100 cells/mm^3) by injecting 150 mg/kg and 100 mg/kg cyclophosphamide at day −5 and day −2 respectively. At day −1, saline was infused at […] for 12 hours using Harvard Apparatus PHD 2000 Infusion pumps. At day 0, mice were infected in the thigh muscle with MRSA strain COL 4×10^5 CFU/50 μL. Four test groups and one vehicle group began dosing at 1 hour post infection:
Group 1 was the vehicle control (3% HP-beta-cyclodextrin in PBS)
Group 2 was the imipenem (Imp) group dosed at a concentration of 0.21 mg/mL solution, infused at 80 μL/hour for 23 hours, with a target steady-state concentration (Css) of 0.3 μg/mL.
Group 3 was the SpsB inhibitor Compound 115 group dosed at a concentration of 2.14 mg/mL solution, infused at 80 μL/hour for 23 hours to achieve a steady state concentration (Css) of 6.4 ug/mL.
Group 4 was the SpsB inhibitor Compound 115 group dosed at 0.67 mg/mL solution (Css 2 ug/mL) co-dosed with imipenem at a concentration of 0.21 mg/mL (Css of 0.3 μg/mL) infused at 80 μL/hour for 23 hours. […]
At 24 hours post infection, bacterial burden in the thigh muscle was determined by plating the tissue homogenate in series dilutions on blood agar plates. […]

MRSA COL (NRS100) = experiment: MIC, broth micro-dilution technique (CLSI); format: cell-based, Staphylococcus aureus; conditions: Staphylococcus aureus, 22 h, read-out: MIC (μg/mL) (COL)
How it was run: (§1)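 Cation-adjusted MHB + 0.002% Tween-80; 10-point 2-fold series starting 64 μg/ml (modified protocol: 4 μg/mL). Final inoculum OD600 0.0005; 35° C, 22 h. MIC per CLSI M07-A8 broth microdilution.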

[1] = test system: Escherichia coli MC4100 harboring the IMP4213; experiment: MIC, broth micro-dilution technique (CLSI); format: cell-based; conditions: Escherichia coli, 22 h, 35° C., 22 hours
How it was run: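 MICs determined after 35 °C, 22 h incubation of bacteria (final OD600 0.0005) with 10-point 2-fold compound series. Series topped at 64 μg/ml in the standard protocol or 4 μg/mL in the modified one. Medium: cation-adjusted Mueller Hinton broth plus 0.002% Tween-80. E. coli MC4100 imp4213 has a permeabilized outer membrane.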

[2] = test system: Methicillin Resistant Staphylococcus aureus strain USA 300 (NRS384); experiment: MIC, broth micro-dilution technique (CLSI); format: cell-based; conditions: Staphylococcus aureus, 22 h, read-out: MIC (μg/mL) S. aureus
How it was run: as §1

[3] = read-out: MIC (μg/mL) E. coli, Table 2 modified protocol: serial 2-fold dilutions starting from 4 μg/mL
[4] = Table 2 modified protocol: serial 2-fold dilutions starting from 4 μg/mL, 35° C., 22 hours

Row | Compound | bacterial burden in the thigh muscle (MRSA strain COL) | MIC (MRSA COL (NRS100)) [µg/mL] | MIC ([1]; read-out: MIC (μg/mL) E. coli, Table 1 protocol: serial 2-fold dilutions starting from 64 μg/ml) [µg/mL] | MIC [2] [µg/mL] | MIC [1, 3] [µg/mL] | MIC (MRSA COL (NRS100); [4]) [µg/mL] | MIC [2, 4] [µg/mL]
1 | CCCCCCCCCCNCCC(=O)N[C@@H](CCCCN)C(=O)N(C)[C@@H]1C(=O)N[C@@H](C)C(=O)N[C@H](C(=O)N[C@@H](C)C(C)=O)Cc2ccc(O)c(c2)-c2cc1ccc2OCCN [Compound 115] | greater reduction in bacterial burden | 0.13 (≈ 0.15 µM) | 19 (≈ 22 µM) | 0.63 (≈ 0.728 µM) |  |  | 
2 | CCCCc1ccc(-c2ccc(C(=O)N[C@@H](CCCN)C(=O)N(C)[C@@H]3C(=O)N[C@@H](C)C(=O)N[C@H](CO)Cc4ccc(OCCN)c(c4)-c4cc3ccc4OCCN)cc2)cc1 [Compound 336] |  | 0.13 (≈ 0.155 µM) |  | 0.5 (≈ 0.598 µM) | 0.25 (≈ 0.299 µM) |  | 
3 | CCCCc1ccc(-c2ccc(C(=O)N[C@@H](CCCN)C(=O)N(C)[C@@H]3C(=O)N[C@@H](C)C(=O)N[C@H](C(=O)NS(C)(=O)=O)Cc4ccc(OCCN)c(c4)-c4cc3ccc4OCCN)cc2)cc1 [Compound 337] |  | 0.75 (≈ 0.809 µM) |  | 2 (≈ 2.16 µM) | 0.047 (≈ 0.0507 µM) |  | 
4 | CCCCc1ccc(-c2ccc(C(=O)N[C@@H](CCCN)C(=O)N(C)[C@@H]3C(=O)N[C@@H](C)C(=O)N[C@H](C(=O)NS(=O)(=O)C(F)(F)F)Cc4ccc(OCCN)c(c4)-c4cc3ccc4OCCN)cc2)cc1 [Compound 338] |  |  |  |  | 0.63 (≈ 0.642 µM) | 2.5 (≈ 2.55 µM) | 3 (≈ 3.06 µM)
5 | CCCCCCCCCCNCCC(=O)N[C@@H](CCCCN)C(=O)N(C)[C@@H]1C(=O)N[C@@H](C)C(=O)N[C@H](C(=O)N[C@@H](C)C(C)=O)Cc2ccc(O)c(c2)-c2cc1ccc2OC1O[C@H](CO)[C@@H](O)[C@H](O)[C@H]1N (stereo partly shown) [Compound 339] |  | 1 (≈ 1.02 µM) |  | 2 (≈ 2.03 µM) | > 4 |  | 
6 | CCCCCCCCCCNCCC(=O)N[C@@H](CCCCN)C(=O)N(C)[C@@H]1C(=O)N[C@@H](C)C(=O)N[C@H](C(=O)N[C@@H](C)C(C)=O)Cc2ccc(OC3O[C@H](CO)[C@@H](O)[C@H](O)[C@H]3N)c(c2)-c2cc1ccc2OC1O[C@H](CO)[C@@H](O)[C@H](O)[C@H]1N (stereo partly shown) [Compound 340] |  | 2 (≈ 1.75 µM) |  | > 4 | > 4 |  | 
